Experimental data taken from ChEMBL document CHEMBL6127041, “Dual-target inhibitors based on acetylcholinesterase: Novel agents for Alzheimer's disease” (Eur J Med Chem, 2024).

Experiments:
[1] = molecular target: High affinity cGMP-specific 3',5'-cyclic phosphodiesterase 9A (Homo sapiens, UniProt O76083); test: Inhibition of PDE9A (unknown origin)
Acetylcholinesterase [2] = molecular target: T1, Acetylcholinesterase (Homo sapiens, UniProt P22303); test: Inhibition of AChE (unknown origin)
Cholinesterase = Cholinesterase (Homo sapiens, UniProt P06276); test: Inhibition of BChE (unknown origin)
Chain of Cholinesterase (P06276 whole entry): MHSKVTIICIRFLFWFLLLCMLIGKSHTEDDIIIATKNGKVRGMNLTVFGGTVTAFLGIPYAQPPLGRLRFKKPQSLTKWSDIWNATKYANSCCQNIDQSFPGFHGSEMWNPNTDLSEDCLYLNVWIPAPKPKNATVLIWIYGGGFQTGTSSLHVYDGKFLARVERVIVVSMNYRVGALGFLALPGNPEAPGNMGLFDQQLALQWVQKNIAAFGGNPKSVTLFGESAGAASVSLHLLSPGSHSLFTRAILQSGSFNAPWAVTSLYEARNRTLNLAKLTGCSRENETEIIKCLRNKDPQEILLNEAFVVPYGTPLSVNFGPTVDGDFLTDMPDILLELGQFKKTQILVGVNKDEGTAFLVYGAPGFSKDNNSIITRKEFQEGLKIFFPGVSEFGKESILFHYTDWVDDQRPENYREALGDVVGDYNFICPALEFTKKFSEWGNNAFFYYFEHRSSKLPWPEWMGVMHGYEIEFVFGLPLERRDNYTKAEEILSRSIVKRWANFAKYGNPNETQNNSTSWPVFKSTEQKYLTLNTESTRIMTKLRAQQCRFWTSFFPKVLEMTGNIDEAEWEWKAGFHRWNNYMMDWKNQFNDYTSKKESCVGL

SH-SY5Y = test: Cytotoxicity against human SH-SY5Y cells assessed as reduction in cell viability at 10 uM measured after 24 hrs by MTT assay relative to control; assay type: functional
Beta-secretase 1 = Beta-secretase 1 (Homo sapiens, UniProt P56817); test: Inhibition of human BACE-1 by FRET assay
Chain of Beta-secretase 1 (P56817 whole entry): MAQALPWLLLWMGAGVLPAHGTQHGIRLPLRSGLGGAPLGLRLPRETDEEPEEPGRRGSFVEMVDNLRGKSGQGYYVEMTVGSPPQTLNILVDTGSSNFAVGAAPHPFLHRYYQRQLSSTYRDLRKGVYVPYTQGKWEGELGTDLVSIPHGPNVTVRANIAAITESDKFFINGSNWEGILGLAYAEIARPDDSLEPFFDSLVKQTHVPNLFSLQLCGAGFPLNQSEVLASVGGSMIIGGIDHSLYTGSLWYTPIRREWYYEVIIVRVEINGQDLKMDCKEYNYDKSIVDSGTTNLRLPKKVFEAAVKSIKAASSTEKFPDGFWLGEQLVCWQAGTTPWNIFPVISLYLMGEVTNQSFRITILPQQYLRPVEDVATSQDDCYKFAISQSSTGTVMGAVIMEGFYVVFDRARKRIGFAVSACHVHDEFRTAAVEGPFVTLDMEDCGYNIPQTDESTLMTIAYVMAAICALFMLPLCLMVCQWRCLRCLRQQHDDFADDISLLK

Acetylcholinesterase [3] = molecular target: T1, Acetylcholinesterase
Acetylcholinesterase [4] = molecular target: T1, Acetylcholinesterase; test: Inhibition of AChE (unknown origin) by Ellman's method
[5] = molecular target: cGMP-specific 3',5'-cyclic phosphodiesterase (Homo sapiens, UniProt O76074); test: Inhibition of PDE5A (unknown origin) using […] as substrate measured after 1 hr by fluorescence polarization assay
Acetylcholinesterase [6] = molecular target: Acetylcholinesterase (Electrophorus electricus, UniProt O42275); test: Inhibition of electric eel AChE
Chain of Acetylcholinesterase (Electrophorus electricus, UniProt O42275) (O42275 whole entry): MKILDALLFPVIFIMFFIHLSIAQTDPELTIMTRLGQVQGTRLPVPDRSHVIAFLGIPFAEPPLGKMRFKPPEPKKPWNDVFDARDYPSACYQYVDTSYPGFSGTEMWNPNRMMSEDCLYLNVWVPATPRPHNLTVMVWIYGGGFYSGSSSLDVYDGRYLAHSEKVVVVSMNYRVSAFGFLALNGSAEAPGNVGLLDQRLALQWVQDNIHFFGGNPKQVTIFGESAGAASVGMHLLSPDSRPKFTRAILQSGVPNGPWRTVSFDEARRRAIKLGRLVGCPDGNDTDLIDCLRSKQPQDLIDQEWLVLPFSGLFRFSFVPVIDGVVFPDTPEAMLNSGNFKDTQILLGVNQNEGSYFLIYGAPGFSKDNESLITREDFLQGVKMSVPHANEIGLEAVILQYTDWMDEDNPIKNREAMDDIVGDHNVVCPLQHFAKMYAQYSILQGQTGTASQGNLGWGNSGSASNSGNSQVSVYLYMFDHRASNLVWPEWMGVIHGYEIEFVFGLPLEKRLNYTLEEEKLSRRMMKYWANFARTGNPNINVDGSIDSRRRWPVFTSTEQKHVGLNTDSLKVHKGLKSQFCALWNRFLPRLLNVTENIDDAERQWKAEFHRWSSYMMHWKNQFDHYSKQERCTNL

T1 sequence (P22303 whole entry): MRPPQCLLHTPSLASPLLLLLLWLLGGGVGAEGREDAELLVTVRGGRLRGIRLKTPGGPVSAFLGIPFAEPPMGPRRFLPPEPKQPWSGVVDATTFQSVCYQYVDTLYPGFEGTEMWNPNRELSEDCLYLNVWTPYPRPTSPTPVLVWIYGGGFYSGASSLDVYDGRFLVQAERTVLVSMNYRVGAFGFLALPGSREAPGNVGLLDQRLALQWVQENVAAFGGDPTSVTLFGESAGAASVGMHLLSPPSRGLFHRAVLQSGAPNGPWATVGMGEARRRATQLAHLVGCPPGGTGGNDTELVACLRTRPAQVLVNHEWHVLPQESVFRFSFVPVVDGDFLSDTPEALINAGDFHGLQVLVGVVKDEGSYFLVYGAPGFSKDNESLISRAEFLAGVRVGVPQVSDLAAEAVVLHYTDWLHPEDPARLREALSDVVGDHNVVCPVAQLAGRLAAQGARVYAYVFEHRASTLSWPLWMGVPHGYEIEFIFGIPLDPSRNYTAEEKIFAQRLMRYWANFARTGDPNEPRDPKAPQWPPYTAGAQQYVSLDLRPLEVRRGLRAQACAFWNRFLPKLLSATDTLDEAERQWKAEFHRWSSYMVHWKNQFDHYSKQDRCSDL
Chain of High affinity cGMP-specific 3',5'-cyclic phosphodiesterase 9A (O76083 whole entry): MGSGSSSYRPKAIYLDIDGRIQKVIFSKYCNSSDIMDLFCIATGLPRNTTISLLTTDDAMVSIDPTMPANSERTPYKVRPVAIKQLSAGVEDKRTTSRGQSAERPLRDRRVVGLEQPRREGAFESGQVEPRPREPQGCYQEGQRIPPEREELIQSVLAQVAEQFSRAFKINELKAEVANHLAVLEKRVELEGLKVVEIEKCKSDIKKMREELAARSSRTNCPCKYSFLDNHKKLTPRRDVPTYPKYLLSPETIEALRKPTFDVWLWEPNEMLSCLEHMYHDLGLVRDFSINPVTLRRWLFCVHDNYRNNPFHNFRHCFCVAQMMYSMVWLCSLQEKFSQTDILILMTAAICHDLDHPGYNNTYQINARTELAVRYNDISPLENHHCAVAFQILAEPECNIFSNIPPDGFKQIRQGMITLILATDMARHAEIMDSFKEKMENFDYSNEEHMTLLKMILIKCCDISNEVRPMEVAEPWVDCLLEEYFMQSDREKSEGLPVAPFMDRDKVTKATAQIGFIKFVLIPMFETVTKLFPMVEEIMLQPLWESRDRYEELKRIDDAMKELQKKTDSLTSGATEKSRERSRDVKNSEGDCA

## O=c1[nH]c(CNCCC2CCN(Cc3ccccc3)CC2)nc2c1cnn2C1CCCC1
[1]
  IC50: 380 nM
Acetylcholinesterase [2]
  IC50: 290 nM
Cholinesterase
  IC50: 5800 nM

## c1ccc2oc(CNCCCCCCCNc3c4c(cc5ccccc35)CCCC4)cc2c1
SH-SY5Y
  Activity: 63%
Beta-secretase 1
  IC50: 1350 nM
Acetylcholinesterase [3]
  IC50: 0.86 nM

## O=C1[C@H]2Cc3c([nH]c4ccccc34)[C@@H](c3ccc4c(c3)OCO4)N2C(=O)CN1CCC1CCN(Cc2ccccc2)CC1
Acetylcholinesterase [4]
  IC50: 30 nM
[5]
  IC50: 150 nM

## O=C1c2c(O)cc(OCCCCCN3CCCCC3)cc2OC2C=CC=CC12 (centres undefined)
Acetylcholinesterase [6]
  IC50: 469 nM
